Patent US11807625B2, “Capsid inhibitors for the prevention of HIV” (Gilead Sciences, Inc., priority 2019, dated 2023)

Assay: PK of compound of Formula (Ia) after single subcutaneous dose of solution formulations in beagle dogs
Format: in vivo
Details: male, beagle, dog, plasma, sc, 12 mg/kg, beagle dogs, SC 12 mg/kg
Protocol: Formulations containing the compound of Formula (Ia), or a pharmaceutically acceptable salt thereof, were prepared as solutions and optionally administered subcutaneously or intramuscularly to rats, rabbits, and/or dogs.
(§1) A solution of about 400 mg/mL of the compound of Formula (Ia) having 17.00 w/w % water, 36.40 w/w % PEG 300, 35.20 w/w % of a sodium salt of a compound of Formula (Ia), 5.00 w/w % ethanol, and 6.40 w/w % poloxamer 188 was prepared. The solution was administered subcutaneously to male beagle dogs at a dose level of about 12 mg/kg and male Wistar Han rats at a dose level of about 50 mg/kg. The pharmacokinetic profiles were determined, and the results for dogs are summarized in Table and Table, while the results for rats are summarized in Table and Table below.
as §1, with “500” for “400”, “14.06” for “17.00”, “30.12” for “36.40”
A solution of about 300 mg/mL of the compound of Formula (Ia) having 23.33 w/w % water, 48.99 w/w % PEG 300, 26.47 w/w % of a sodium salt of a compound of Formula (Ia), and 1.21 w/w % poloxamer 188 was prepared. The solution was administered subcutaneously to male beagle dogs at a dose level of about 6 mg/kg and male Wistar Han rats at a dose level of about 50 mg/kg. The pharmacokinetic profiles were determined, and the results for dogs are summarized in Table and Table, while the results for rats are summarized in Table and Table below.
as §1, with “18.80” for “17.00”, “40.25” for “36.40”, “34.38” for “35.20”, “1.57” for “6.40”
as §1, with “500” for “400”, “16.29” for “17.00”, “34.88” for “36.40”, “41.92” for “35.20”, “1.91” for “6.40”
as §1, with “20.90” for “17.00”, “44.72” for “36.40”, “and 34.38” for “35.20”, “(Ia)” for “(Ia), 5.00 w/w % ethanol, and 6.40 w/w % poloxamer 188”
A solution of about 400 mg/mL of the compound of Formula (Ia) having 19.90 w/w % water, 42.59 w/w % PEG 300, 34.38 w/w % of a sodium salt of a compound of Formula (Ia), and 3.13 w/w % poloxamer 188 was prepared. The solution was administered subcutaneously to male beagle dogs at a dose level of about 12 mg/kg and male Wistar Han rats at a dose level of about 50 mg/kg. […]

[1] = 400 mg/mL solution W (5.00% ethanol, 1.57% poloxamer 188), Mean n = 3
[2] = 400 mg/mL solution W (5.00% ethanol, 1.57% poloxamer 188), animals #1-#3
[3] = 400 mg/mL solution Y (water, PEG 300), Mean n = 3
[4] = 400 mg/mL solution Y (water, PEG 300), animals #1-#3
[5] = 400 mg/mL solution Z (3.13% poloxamer 188), animals #1-#3
[6] = 400 mg/mL solution Z (3.13% poloxamer 188), Mean n = 3
[7] = 500 mg/mL solution X (5.00% ethanol, 1.91% poloxamer 188), Mean n = 3
[8] = 500 mg/mL solution X (5.00% ethanol, 1.91% poloxamer 188), animals #1-#3

concentration at 96 h [1]: 43.5 nM
concentration at 168 h [1]: 40.3 nM
concentration at 336 h [1]: 133 nM
concentration at 504 h [1]: 121 nM
concentration at 672 h [1]: 145 nM
concentration at 840 h [1]: 82.4 nM
concentration at 1008 h [1]: 71.7 nM
concentration at 1008 h [2]: 80.7 nM
concentration at 1344 h [1]: 80.7 nM
concentration at 1344 h [2]: 72.3 nM
concentration at 1680 h [1]: 34.9 nM
concentration at 1680 h [2]: 28.8 nM
concentration at 2016 h [1]: 35.3 nM
concentration at 2016 h [2]: 25.8 nM
concentration at 2352 h [1]: 21.9 nM
concentration at 2352 h [2]: 16.8 nM
concentration at 2688 h [1]: 13.3 nM
concentration at 2688 h [2]: 9.87 nM
concentration at 3024 h [1]: 11.4 nM
concentration at 3024 h [2]: 10.5 nM
concentration at 3360 h [1]: 7.4 nM
concentration at 3360 h [2]: 6.7 nM
concentration at 3696 h [1]: 4.7 nM
concentration at 4032 h (400 mg/mL solution W (5.00% ethanol, 1.57% poloxamer 188), 4032 h, Mean n = 3): 5.6 nM
concentration at 4368 h (400 mg/mL solution W (5.00% ethanol, 1.57% poloxamer 188), 4368 h, Mean n = 3): 5.7 nM
concentration at 1 h [3]: 9.61 nM
concentration at 3 h [3]: 17.9 nM
concentration at 8 h [3]: 33.9 nM
concentration at 24 h [3]: 69.9 nM
concentration at 48 h [3]: 77.1 nM
concentration at 72 h [3]: 58.5 nM
concentration at 72 h [4]: 73.6 nM
concentration at 96 h [3]: 58.4 nM
concentration at 96 h [4]: 73.8 nM
concentration at 168 h [3]: 47.8 nM
concentration at 168 h [4]: 41.2 nM
concentration at 336 h [3]: 164 nM
concentration at 336 h [4]: 163 nM
concentration at 504 h [3]: 248 nM
concentration at 504 h [4]: 247 nM
concentration at 672 h [3]: 205 nM
concentration at 672 h [4]: 229 nM
concentration at 840 h [3]: 123 nM
concentration at 840 h [4]: 136 nM
concentration at 1008 h [3]: 95.8 nM
concentration at 1008 h [4]: 119 nM
concentration at 1334 h [3]: 58.2 nM
concentration at 1334 h [4]: 70.5 nM
concentration at 1680 h [3]: 28.4 nM
concentration at 1680 h [4]: 27.2 nM
concentration at 2016 h [3]: 18.6 nM
concentration at 2016 h [4]: 17.7 nM
concentration at 2352 h [3]: 15.4 nM
concentration at 2352 h [4]: 18.1 nM
concentration at 2688 h [3]: 9.47 nM
concentration at 2688 h [4]: 8.23 nM
concentration at 3024 h [3]: 6.15 nM
concentration at 3024 h [4]: 5.55 nM
concentration at 3360 h [3]: 5.11 nM
concentration at 3696 h [3]: 3.76 nM
concentration at 1 h (400 mg/mL solution Z (3.13% poloxamer 188), Mean): 1.58 nM
concentration at 1 h [5]: 1.66 nM
concentration at 3 h [6]: 5.83 nM
concentration at 8 h [6]: 34 nM
concentration at 24 h [6]: 80.5 nM
concentration at 48 h [6]: 61.6 nM
concentration at 72 h [6]: 65.1 nM
concentration at 72 h [5]: 89.8 nM
concentration at 96 h [6]: 70.6 nM
concentration at 168 h [6]: 60.6 nM
concentration at 336 h [6]: 172 nM
concentration at 504 h [6]: 228 nM
concentration at 504 h [5]: 301 nM
concentration at 672 h [6]: 117 nM
concentration at 672 h [5]: 144 nM
concentration at 840 h [6]: 95.7 nM
concentration at 840 h [5]: 107 nM
concentration at 1008 h [6]: 79.9 nM
concentration at 1008 h [5]: 93.3 nM
concentration at 1334 h [6]: 50.2 nM
concentration at 1334 h [5]: 51.6 nM
concentration at 1680 h [6]: 24.2 nM
concentration at 2016 h [6]: 15.2 nM
concentration at 2352 h [6]: 8.85 nM
concentration at 2688 h [6]: 6.06 nM
concentration at 3024 h [6]: 5.61 nM
concentration at 3024 h [5]: 3.65 nM
concentration at 3360 h [6]: 3.41 nM
concentration at 3696 h [6]: 1.75 nM
concentration at 1 h [7]: 12.1 nM
concentration at 3 h [7]: 15.2 nM
concentration at 3 h [8]: 19.4 nM
concentration at 8 h [7]: 26.1 nM
concentration at 8 h [8]: 22.3 nM
Structure (SMILES): CC(C)(C#Cc1ccc(-c2ccc(Cl)c3c(NS(C)(=O)=O)nn(CC(F)(F)F)c23)c([C@H](Cc2cc(F)cc(F)c2)NC(=O)Cn2nc(C(F)(F)F)c3c2C(F)(F)[C@@H]2C[C@H]32)n1)S(C)(=O)=O [compound of Formula (Ia)]
